Key:
5HT1A receptor = target: T1, 5HT1A receptor (Rattus norvegicus, UniProt P19327); assay: Brain Serotonin 5HT1A Radioreceptor Assay (3H-80H-DPAT); format: binding; conditions: rat frontal cortex membranes, 10 minutes, 37° C., read-out: RECEPTOR BINDING 5HT-1A (IC50)
T1 construct: Membrane fragments were prepared from the frontal cortex dissected from brains obtained from female rats; from tissue; host or cells: frontal cortex, female rats
T1 sequence (P19327 1-422): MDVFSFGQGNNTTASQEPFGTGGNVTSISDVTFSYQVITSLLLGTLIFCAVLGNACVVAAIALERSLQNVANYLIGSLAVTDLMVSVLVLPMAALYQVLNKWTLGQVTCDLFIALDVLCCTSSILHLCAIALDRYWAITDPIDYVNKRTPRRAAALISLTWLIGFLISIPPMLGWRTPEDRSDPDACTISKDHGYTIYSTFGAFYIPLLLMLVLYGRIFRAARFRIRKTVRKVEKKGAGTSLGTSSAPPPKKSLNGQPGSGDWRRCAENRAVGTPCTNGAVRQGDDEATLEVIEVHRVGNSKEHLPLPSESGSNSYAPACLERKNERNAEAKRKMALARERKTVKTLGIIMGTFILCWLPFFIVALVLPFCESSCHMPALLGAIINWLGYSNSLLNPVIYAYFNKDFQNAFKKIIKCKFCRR
Experimental: Membrane fragments were prepared from the frontal cortex dissected from brains obtained from female rats (~150 g). The 5HT1A sites were labeled with ^3 H-80H-dipropylaminotetralin (^3 H-80H-DPAT). Membrane fragments, ^3 H-80H-DPAT and an unlabeled test compound were incubated for 10 minutes at 37° C. The tubes were then placed in an ice bath for an additional 10 minutes. Compound bound to the receptor site was separated from the remaining unbound compound by vacuum filtration.
The ability of a nonlabeled compound to compete with ^3 H-80H-DPAT for binding sites was a measure of the compound's affinity for the 5HT1A receptor. Specific binding was determined by the difference between total counts bound and counts bound in the presence of 10^-5 M serotonin.
Data are presented at the IC50, the concentration of nonlabeled compound required to displace 50% of the ^3 H-80H-DPAT specifically bound to 5HT1A binding sites.

[1] = system: spontaneously hypertensive rats (SHR); assay: Antihypertensive Activity: Spontaneously Hypertensive Rat (SHR test); format: in vivo, rat (male spontaneously hypertensive); conditions: p.o. or i.v.; for SHR TEST: change in mean arterial blood pressure: dose 2.5 mpk
Experimental: Mean arterial pressure and heart rate were monitored from directly cannulated animals. Compounds were administered p.o. or i.v. and blood pressure was recorded for various time intervals post dosing.
Blood pressure changes (expressed as change in control pressure and reported as delta % of control for each animal) were analyzed statistically using a one way analysis of variance with a Dunnett's test. P values less than 0.05 were considered significant.

[2] = system: alpha adrenergic receptor; assay: Alpha-1 Adrenergic Blockage: Inhibition of Phenylephrine-Induced Increases in Blood Pressure in the Anesthetized Dog; format: in vivo; conditions: i.v., phenylephrine 10 μg/kg
From the text: Dogs were anesthetized and bilaterally vagotomized. A femoral artery and vein were cannulated for detection of diastolic blood pressure and drug administration, respectively. Percent inhibition of alpha adrenergic receptor antagonism was quantified by determining dose-response (increase in diastolic pressure) relationship of phenylephrine before and after various doses of the antagonist.

5HT2 receptor = target: T2, 5HT2 receptor (Rattus norvegicus, UniProt P14842); assay: Brain Serotonin 5HT2 Radioreceptor Assay (3H-ketanserin); format: binding; conditions: rat frontal cortex membranes, 15 minutes, 37° C., read-out: RECEPTOR BINDING 5HT-2 (IC50)
T2 construct: Membrane fragments were prepared from the frontal cortex dissected from brains obtained from female rats; from tissue; host or cells: frontal cortex, female rats
T2 sequence (P14842 whole entry, the tested form may be a part): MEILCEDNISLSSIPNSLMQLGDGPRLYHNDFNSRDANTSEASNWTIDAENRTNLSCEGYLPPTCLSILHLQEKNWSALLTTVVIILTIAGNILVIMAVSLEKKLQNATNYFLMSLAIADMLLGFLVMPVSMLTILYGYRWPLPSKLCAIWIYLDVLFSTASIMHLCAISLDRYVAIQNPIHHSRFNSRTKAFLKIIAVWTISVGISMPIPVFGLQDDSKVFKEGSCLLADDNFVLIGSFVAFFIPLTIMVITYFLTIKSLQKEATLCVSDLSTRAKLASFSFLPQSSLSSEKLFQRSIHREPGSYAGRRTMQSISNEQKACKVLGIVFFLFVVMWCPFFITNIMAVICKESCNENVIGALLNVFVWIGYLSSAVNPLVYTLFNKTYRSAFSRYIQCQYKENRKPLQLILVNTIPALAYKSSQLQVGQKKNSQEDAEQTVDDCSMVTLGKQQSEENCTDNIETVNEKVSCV
Experimental: Membrane fragments were prepared from the frontal cortex dissected from brains obtained from female rats (~150 g). The 5HT2 sites were labeled with ^3 H-ketanserin. Membrane fragments, ^3 H-ketanserin and an unlabeled test compound were incubated for 15 minutes at 37° C. Compound bound to the receptor site was separated from the remaining unbound compound by vacuum filtration.
The ability of a nonlabeled compound to compete with ^3 H-ketanserin for binding sites was a measure of the compound's affinity for the 5HT2 receptor. Specific binding was determined by the difference between total counts bound and counts bound in the presence of 10^-6 M methysergide.
Data are presented as the IC50, the concentration of nonlabeled compound required to displace 50% of the ^3 H-ketanserin specifically bound to 5HT2 binding sites.

[3] = target: alpha-1 adrenergic receptor; assay: Brain Alpha-1 Radioreceptor Assay (3H-prazosin); conditions: guinea pig brain membranes, 30 minutes, 30° C., read-out: RECEPTOR BINDING ALPHA-1 (IC50)
Experimental: Membrane fragments were prepared from the brains of mature female guinea pigs after removal of the corpus striata. The alpha-1 adrenergic receptor sites were labeled with ^3 H-prazosin. Membrane fragments, ^3 H-prazosin and an unlabeled test compound were incubated for 30 minutes at 30° C. Compound bound to the receptor site was separated from the remaining unbound radioligand by vacuum filtration. Specific binding was determined by the difference between total counts bound and counts bound in the presence of 10-^5 M phentolamine.

| Compound | IC50 (5HT1A receptor) | SHR TEST: change in mean arterial blood pressure [1] | % INHIB OF PHENYLEPHRINE RESPONSE ([2]; dose 0.03 mpk) | IC50 (5HT2 receptor) | IC50 [3] | % INHIB OF PHENYLEPHRINE RESPONSE ([2]; dose 0.003 mpk) | change in vivo at 5 mg/kg ([1]; Rattus norvegicus, dose 5 mpk, read-out: SHR TEST: change in blood pressure (delta % of control)) |
| --- | --- | --- | --- | --- | --- | --- | --- |
| COc1ccccc1N1CCN(CCn2c(=O)c3csc4c3n(c2=O)CCC4=O)CC1 [Example 1, 3,4,5,7,8,9-Hexahydro-4-[2-[4-(2-methoxyphenyl)piperazin-1-yl]ethyl]thieno[4,3,2-de]pyrido[1,2c]pyrimidine-3,5,9-trione] | 25 nM | -59 mm Hg | 86% | 6500 nM | 18 nM | – | – |
| COc1ccccc1N1CCN(CCn2c(=O)c3csc4c3n(c2=O)CC=C4)CC1 [Example 24, 3,4,5,7-Tetrahydro-4-[2-[4-(2-methoxyphenyl)piperazin-1-yl]ethyl]thieno[4,3,2-de]pyrido[1,2-c]pyrimidine-3,5-dione] | 120 nM | -59.0 mm Hg | 98% | 2000 nM | 23 nM | – | – |
| COc1ccccc1N1CCN(CCn2c(=O)c3csc4c3n(c2=O)CCNC4=O)CC1 [Example 25] | 48 nM | -58.0 mm Hg | – | 2000 nM | 45 nM | 94% | – |
| COc1ccccc1N1CCN(CCn2c(=O)c3csc4c3n(c2=O)CCC4OC(=O)c2ccccc2)CC1 (centres unmarked) [Example 35, 9-Benzoyloxy-3,4,5,7,8,9-hexahydro-4-[2-[4-(2-methoxyphenyl)piperazin-1-yl]ethyl]thieno[4,3,2-de]pyrido[1,2-c]pyrimidine-3,5-dione] | 130 nM | – | 89% | 1500 nM | 0.015 nM | – | -16.6% |

From patent US4939137A, “Ring-fused thienopyrimidinedione derivatives” (Ortho Pharmaceutical Corporation, priority 1989, dated 1990)
